From patent US10456509B2, “Chlorhexidine gluconate compositions, resin systems and articles” (3M INNOVATIVE PROPERTIES COMPANY, priority 2012, dated 2019)

Assays:
[1] = Solubility Screening of CHG in vehicles, Vacuum Method
Description: Solubility Screening. Screening tests were conducted to determine the solubility of CHG in a wide variety of vehicles. Tests were conducted using the Vacuum Method and the Lyophilizing Method.
Vacuum Method. […] The flask was put in a 60° C. oil bath and stirred with a magnetic stir bar. […] In those cases, after nearly all the water was removed, additional vehicle was added to bring the final weight to 50 grams. The resulting concentration of CHG and residual water were determined. Also, the final state of the solution was qualitatively evaluated to determine if the mixture was transparent and apparently homogenous, or clearly inhomogeneous.

[2] = Solubility of lyophilized CHG in vehicles, Lyophilization Method; details: for Apparent solubility 2 minutes / Apparent solubility 2 hours 50° C. / Apparent solubility >24 hours / Apparent solubility after cooling / Apparent solubility immediate: 0.2 wt. % lyophilized CHG; for Apparent solubility 2 minutes: after 2 minutes; for Apparent solubility 2 hours 50° C.: after 2 hours in 50° C. oven; for Apparent solubility >24 hours: after 24 hours; for Apparent solubility after cooling: after cooling to room temperature; for Apparent solubility immediate: observed immediately after mixing
Description: The Lyophilization Method. Lyophilized CHG was prepared by freeze-drying the aqueous CHG solution (20 wt. % solution in water, obtained from Xttrium Laboratories Inc., Chicago, Ill.).
For lower viscosity vehicles, a 5 ml sample of the non-aqueous vehicle of interest was measured into a glass vial. For higher viscosity vehicles that were difficult to transfer by volume, a 5 gm sample was weighed into the vial. Next, 0.01 g of lyophilized CHG was added to the vial. The sample was capped and mixed by shaking for 30 seconds. The sample was immediately observed and then observed again after 2 minutes and again after 24 hours. After 24 hours, the sample was placed in a 50° C. oven for 2 hours and then removed and immediately observed. These samples were allowed to cool to room temperature and a final observation was made.
CHG solutions. The solutions containing CHG were either a 20 wt. % aqueous solution of CHG or a 10-20% w/w solution of CHG in a non-aqueous vehicle. The non-aqueous solutions were prepared by freeze drying the aqueous CHG solution to produce lyophilized CHG. Finely divided, lyophilized CHG was then solubilized in a non-aqueous vehicle at room temperature with continuous stirring for eight hours.

Row | Substance | Final State [1] | Apparent solubility 2 minutes [2] | Apparent solubility 2 hours 50° C. [2] | Apparent solubility >24 hours [2] | Apparent solubility after cooling [2] | Apparent solubility immediate [2] | solubility of CHG in vehicle (dissolution experiments using lyophilized CHG) ([2]; lyophilized CHG)
1 | Isolaureth-10 | Inhomogeneous | no | soluble | partial | soluble | no | 
2 | PPG-5 Ceteth-20 | Inhomogeneous | no | soluble | partial | soluble | no | 
3 | Polyglycerol-3 Diisostearate |  | no | soluble | soluble | partial | no | 
4 | sorbitan trioleate |  |  |  |  |  |  | limited
